± gives the expanded uncertainty stated by the source.

The conditions of one data set: 303.15 K; 101.33 kPa; Liquid; Symmetrical Wheatstone bridge.
Consider `CCn1cc[n+](C)c1.N#CN=C=[N-]` [1-ethyl-3-methylimidazolium dicyanamide], for which the electrical conductivity came to 3.342 ± 0.027 S/m.

As for `CCn1cc[n+](C)c1.F[B-](F)(F)F` [1-ethyl-3-methylimidazolium tetrafluoroborate], the electrical conductivity was 1.847 ± 0.015 S/m.

Staying with this data set, now noted: 303.15 K; 101.33 kPa; Liquid; Vibrating tube method.
In the case of `CCn1cc[n+](C)c1.O=S(=O)([N-]S(=O)(=O)C(F)(F)F)C(F)(F)F`, the mass density (commonly the mass of a sample divided by its volume) was found to be 1514.2 ± 4.5 kg/m3.

`CCCCn1cc[n+](C)c1.F[B-](F)(F)F` [1-butyl-3-methylimidazolium tetrafluoroborate]: the mass density was 1198.6 ± 2.8 kg/m3.

As to `CCn1cc[n+](C)c1.N#CN=C=[N-]` [1-ethyl-3-methylimidazolium dicyanamide], the mass density is 1097.5 ± 2.3 kg/m3.

On to `CCn1cc[n+](C)c1.F[B-](F)(F)F` [1-ethyl-3-methylimidazolium tetrafluoroborate], for which the mass density amounted to 1285 ± 3.2 kg/m3.

Staying with this data set, now noted: 313.15 K; 101.33 kPa; Liquid; Capillary tube (Ostwald / Ubbelohde) method.
Turning to `CCn1cc[n+](C)c1.O=S(=O)([N-]S(=O)(=O)C(F)(F)F)C(F)(F)F`, the viscosity (usually the internal friction of a fluid under shear) is 19.97 ± 0.54 mPa·s.

Consider `CCCCn1cc[n+](C)c1.F[B-](F)(F)F` [1-butyl-3-methylimidazolium tetrafluoroborate], for which the viscosity is reported as 52.81 ± 1.4 mPa·s.

`CCn1cc[n+](C)c1.N#CN=C=[N-]` [1-ethyl-3-methylimidazolium dicyanamide]: the viscosity came to 9.8 ± 0.27 mPa·s.

Consider `CCn1cc[n+](C)c1.F[B-](F)(F)F` [1-ethyl-3-methylimidazolium tetrafluoroborate], for which the viscosity was determined as 21.77 ± 0.59 mPa·s.

The data set is the same for the next values; noted with them: 313.15 K; 101.33 kPa; Liquid; Symmetrical Wheatstone bridge.
As to `CCn1cc[n+](C)c1.O=S(=O)([N-]S(=O)(=O)C(F)(F)F)C(F)(F)F`, the electrical conductivity was determined as 1.414 ± 0.011 S/m.

`CCCCn1cc[n+](C)c1.F[B-](F)(F)F` [1-butyl-3-methylimidazolium tetrafluoroborate]: the electrical conductivity is 0.6913 ± 0.0055 S/m.

Consider `CCn1cc[n+](C)c1.N#CN=C=[N-]` [1-ethyl-3-methylimidazolium dicyanamide], for which the electrical conductivity worked out at 4.226 ± 0.034 S/m.

Regarding `CCn1cc[n+](C)c1.F[B-](F)(F)F` [1-ethyl-3-methylimidazolium tetrafluoroborate], the electrical conductivity amounted to 2.466 ± 0.02 S/m.

Still in this data set, the particulars now being: 313.15 K; 101.33 kPa; Liquid; Vibrating tube method.
Consider `CCn1cc[n+](C)c1.O=S(=O)([N-]S(=O)(=O)C(F)(F)F)C(F)(F)F`, for which the mass density was determined as 1504.3 ± 4.4 kg/m3.

In the case of `CCCCn1cc[n+](C)c1.F[B-](F)(F)F` [1-butyl-3-methylimidazolium tetrafluoroborate], the mass density amounted to 1191.6 ± 2.7 kg/m3.

With `CCn1cc[n+](C)c1.N#CN=C=[N-]` [1-ethyl-3-methylimidazolium dicyanamide], the mass density is recorded as 1091 ± 2.3 kg/m3.

Turning to `CCn1cc[n+](C)c1.F[B-](F)(F)F` [1-ethyl-3-methylimidazolium tetrafluoroborate], the mass density worked out at 1277.5 ± 3.2 kg/m3.

The same data set, now with this note: 323.15 K; 101.33 kPa; Liquid; Capillary tube (Ostwald / Ubbelohde) method.
Take `CCn1cc[n+](C)c1.O=S(=O)([N-]S(=O)(=O)C(F)(F)F)C(F)(F)F`: the viscosity is 15.17 ± 0.41 mPa·s.

As to `CCCCn1cc[n+](C)c1.F[B-](F)(F)F` [1-butyl-3-methylimidazolium tetrafluoroborate], the viscosity turned out to be 35.53 ± 0.97 mPa·s.

As to `CCn1cc[n+](C)c1.N#CN=C=[N-]` [1-ethyl-3-methylimidazolium dicyanamide], the viscosity is 7.83 ± 0.21 mPa·s.

Turning to `CCn1cc[n+](C)c1.F[B-](F)(F)F` [1-ethyl-3-methylimidazolium tetrafluoroborate], the viscosity amounted to 16.35 ± 0.45 mPa·s.

The same data set, now with this note: 323.15 K; 101.33 kPa; Liquid; Symmetrical Wheatstone bridge.
Regarding `CCn1cc[n+](C)c1.O=S(=O)([N-]S(=O)(=O)C(F)(F)F)C(F)(F)F`, the electrical conductivity is 1.799 ± 0.014 S/m.

As for `CCCCn1cc[n+](C)c1.F[B-](F)(F)F` [1-butyl-3-methylimidazolium tetrafluoroborate], the electrical conductivity turned out to be 0.9942 ± 0.008 S/m.

As for `CCn1cc[n+](C)c1.N#CN=C=[N-]` [1-ethyl-3-methylimidazolium dicyanamide], the electrical conductivity came out at 5.194 ± 0.042 S/m.

With `CCn1cc[n+](C)c1.F[B-](F)(F)F` [1-ethyl-3-methylimidazolium tetrafluoroborate], the electrical conductivity amounted to 3.176 ± 0.025 S/m.

Still in this data set, the particulars now being: 323.15 K; 101.33 kPa; Liquid; Vibrating tube method.
For `CCn1cc[n+](C)c1.O=S(=O)([N-]S(=O)(=O)C(F)(F)F)C(F)(F)F`, the mass density is 1494.3 ± 4.4 kg/m3.

Take `CCCCn1cc[n+](C)c1.F[B-](F)(F)F` [1-butyl-3-methylimidazolium tetrafluoroborate]: the mass density is listed as 1184.5 ± 2.7 kg/m3.

For the molecule `CCn1cc[n+](C)c1.N#CN=C=[N-]` [1-ethyl-3-methylimidazolium dicyanamide], the mass density was found to be 1084.4 ± 2.2 kg/m3.

As to `CCn1cc[n+](C)c1.F[B-](F)(F)F` [1-ethyl-3-methylimidazolium tetrafluoroborate], the mass density came to 1269.9 ± 3.1 kg/m3.

Staying with this data set, now noted: 333.15 K; 101.33 kPa; Liquid; Capillary tube (Ostwald / Ubbelohde) method.
On to `CCn1cc[n+](C)c1.O=S(=O)([N-]S(=O)(=O)C(F)(F)F)C(F)(F)F`, for which the viscosity was determined as 11.87 ± 0.32 mPa·s.

Turning to `CCCCn1cc[n+](C)c1.F[B-](F)(F)F` [1-butyl-3-methylimidazolium tetrafluoroborate], the viscosity was 25.11 ± 0.68 mPa·s.

With `CCn1cc[n+](C)c1.N#CN=C=[N-]` [1-ethyl-3-methylimidazolium dicyanamide], the viscosity is given as 6.43 ± 0.18 mPa·s.

Turning to `CCn1cc[n+](C)c1.F[B-](F)(F)F` [1-ethyl-3-methylimidazolium tetrafluoroborate], the viscosity is given as 12.7 ± 0.35 mPa·s.

The same data set, now with this note: 333.15 K; 101.33 kPa; Liquid; Symmetrical Wheatstone bridge.
As to `CCn1cc[n+](C)c1.O=S(=O)([N-]S(=O)(=O)C(F)(F)F)C(F)(F)F`, the electrical conductivity stood at 2.224 ± 0.018 S/m.

For `CCCCn1cc[n+](C)c1.F[B-](F)(F)F` [1-butyl-3-methylimidazolium tetrafluoroborate], the electrical conductivity was found to be 1.364 ± 0.011 S/m.

`CCn1cc[n+](C)c1.N#CN=C=[N-]` [1-ethyl-3-methylimidazolium dicyanamide]: the electrical conductivity turned out to be 6.236 ± 0.05 S/m.

`CCn1cc[n+](C)c1.F[B-](F)(F)F` [1-ethyl-3-methylimidazolium tetrafluoroborate]: the electrical conductivity stood at 3.97 ± 0.032 S/m.

The same data set, now with this note: 333.15 K; 101.33 kPa; Liquid; Vibrating tube method.
On to `CCn1cc[n+](C)c1.O=S(=O)([N-]S(=O)(=O)C(F)(F)F)C(F)(F)F`, for which the mass density is reported as 1484.4 ± 4.3 kg/m3.

On to `CCCCn1cc[n+](C)c1.F[B-](F)(F)F` [1-butyl-3-methylimidazolium tetrafluoroborate], for which the mass density stood at 1177.3 ± 2.7 kg/m3.

Turning to `CCn1cc[n+](C)c1.N#CN=C=[N-]` [1-ethyl-3-methylimidazolium dicyanamide], the mass density was determined as 1077.9 ± 2.2 kg/m3.

As to `CCn1cc[n+](C)c1.F[B-](F)(F)F` [1-ethyl-3-methylimidazolium tetrafluoroborate], the mass density stood at 1262.4 ± 3.1 kg/m3.

The same data set, now with this note: 343.15 K; 101.33 kPa; Liquid; Capillary tube (Ostwald / Ubbelohde) method.
Consider `CCn1cc[n+](C)c1.O=S(=O)([N-]S(=O)(=O)C(F)(F)F)C(F)(F)F`, for which the viscosity came to 9.54 ± 0.26 mPa·s.

Take `CCCCn1cc[n+](C)c1.F[B-](F)(F)F` [1-butyl-3-methylimidazolium tetrafluoroborate]: the viscosity was 18.48 ± 0.5 mPa·s.

As to `CCn1cc[n+](C)c1.N#CN=C=[N-]` [1-ethyl-3-methylimidazolium dicyanamide], the viscosity was 5.36 ± 0.15 mPa·s.

In the case of `CCn1cc[n+](C)c1.F[B-](F)(F)F` [1-ethyl-3-methylimidazolium tetrafluoroborate], the viscosity was determined as 10.12 ± 0.28 mPa·s.

The data set is the same for the next values; noted with them: 343.15 K; 101.33 kPa; Liquid; Symmetrical Wheatstone bridge.
For `CCn1cc[n+](C)c1.O=S(=O)([N-]S(=O)(=O)C(F)(F)F)C(F)(F)F`, the electrical conductivity came out at 2.689 ± 0.021 S/m.

For `CCCCn1cc[n+](C)c1.F[B-](F)(F)F` [1-butyl-3-methylimidazolium tetrafluoroborate], the electrical conductivity was 1.8 ± 0.014 S/m.

As for `CCn1cc[n+](C)c1.N#CN=C=[N-]` [1-ethyl-3-methylimidazolium dicyanamide], the electrical conductivity amounted to 7.343 ± 0.059 S/m.

Consider `CCn1cc[n+](C)c1.F[B-](F)(F)F` [1-ethyl-3-methylimidazolium tetrafluoroborate], for which the electrical conductivity is 4.843 ± 0.039 S/m.

Staying with this data set, now noted: 353.15 K; 101.33 kPa; Liquid; Capillary tube (Ostwald / Ubbelohde) method.
In the case of `CCn1cc[n+](C)c1.O=S(=O)([N-]S(=O)(=O)C(F)(F)F)C(F)(F)F`, the viscosity worked out at 7.83 ± 0.21 mPa·s.

Turning to `CCCCn1cc[n+](C)c1.F[B-](F)(F)F` [1-butyl-3-methylimidazolium tetrafluoroborate], the viscosity amounted to 14.06 ± 0.38 mPa·s.

As to `CCn1cc[n+](C)c1.N#CN=C=[N-]` [1-ethyl-3-methylimidazolium dicyanamide], the viscosity is given as 4.55 ± 0.12 mPa·s.

As for `CCn1cc[n+](C)c1.F[B-](F)(F)F` [1-ethyl-3-methylimidazolium tetrafluoroborate], the viscosity is 8.23 ± 0.22 mPa·s.

The data set is the same for the next values; noted with them: 353.15 K; 101.33 kPa; Liquid; Symmetrical Wheatstone bridge.
For the molecule `CCn1cc[n+](C)c1.O=S(=O)([N-]S(=O)(=O)C(F)(F)F)C(F)(F)F`, the electrical conductivity was found to be 3.189 ± 0.025 S/m.

Consider `CCCCn1cc[n+](C)c1.F[B-](F)(F)F` [1-butyl-3-methylimidazolium tetrafluoroborate], for which the electrical conductivity was 2.301 ± 0.018 S/m.

As to `CCn1cc[n+](C)c1.N#CN=C=[N-]` [1-ethyl-3-methylimidazolium dicyanamide], the electrical conductivity came out at 8.509 ± 0.068 S/m.

On to `CCn1cc[n+](C)c1.F[B-](F)(F)F` [1-ethyl-3-methylimidazolium tetrafluoroborate], for which the electrical conductivity was 5.794 ± 0.046 S/m.

The values are drawn from the NIST ThermoML archive (doi:10.1021/je900878j).
